The results in this text go back to patent US20090118285A1, “USE OF KCNQ-OPENERS FOR TREATING OR REDUCING THE SYMPTOMS OF SCHIZOPHRENIA” (H. Lundbeck A/S, priority 2006, published 2009).

Where only a bound is given, the exact number is not on record here.

Data set [1] is described as follows: Inhibition of baseline motility in vehicle-pretreated, vehicle-challenged mice. The conditions noted are these: NMRI, mouse, in vivo.
Data set [2] concerns sensitised behavioural response to amphetamine in mice. Briefly: Amphetamine sensitisation: sensitised behavioural response to amphetamine in mice. Type of data set: in vivo, mouse. The conditions noted are these: amphetamine-pretreated mice, compound s.c. 30 min before D-amphetamine challenge 1.25 mg/kg s.c., 30 min test; for ED50: Mus musculus, read-out: Inhibition of amphetamine sensitised response. ED50 (±S.D.). The method, then:
Inhibition of the behavioral response to an acute amphetamine challenge in sensitised animals is proposed as a model for evaluating the antipsychotic or antimanic potential of compounds.
Subjects. Male NMRI mice (Charles River) weighing approx. 35 g are used. The animals were housed 6 mice pr cage in a 12-hr light/dark cycle under controlled conditions for regular in-door temperature (21±2° C.) and humidity (55±5%) with food and tap water available ad libitum. 12 mice are used pr experimental group.
Administration of compounds.

Data set [3] has as its system conditioned avoidance response in rats. The data set can be described thus: Conditioned avoidance response in rats. Type of data set: in vivo, rat. The conditions noted are these: for % inhibition of avoidance. Relative to baseline.: rats; for Escape failures (effect on motor performance): rat, in vivo. An excerpt: In the conditioned avoidance response (CAR) model, rats are trained to respond to a stimulus within a fixed time by moving from one place to another in order to avoid a footshock. Antipsychotics selectively suppress the avoidance response within a certain dose-range without suppressing escape behavior elicited by the appearance of the footshock. The CAR model is considered to be a predictive and reliable animal model that is sensitive to compounds with an antipsychotic potential.
Subjects. Male Wistar rats (Taconic, Denmark) weighing 150 g at the beginning of the study are used. The rats are housed ii pairs and maintained on a 12 h light/dark cycle (lights on 06:00). The animals are fed once daily (approx. 6 pellets/rat) in order to keep the rats at 80% of their free-feeding weight. Water is available ad libitum. Temperature (21±1° C.) and relative humidity (55±5%) are automatically controlled.
Experimental procedure. Conditioned avoidance testing is conducted using four automated shuttle-boxes (ENV-010M, MED-Associates) each placed in a sound-attenuated chamber. Each box is divided into two compartments by a partition with an opening. The position of the animal and crossings from one compartment to the other are detected by two photocells placed on either side of the dividing wall. Upon presentation of the conditioned stimuli (CS), tone and light, the animals have 10 s to cross to the other compartment of the shuttle-box in order to turn the CS off (end the trial) and avoid the appearance of the unconditioned stimulus (UCS). If the rat remains in the same compartment for more than 10 s, the UCS is presented as 0.5 mA scrambled foot-shocks until escape is performed or 10 s in maximal duration. The following behavioural variables are evaluated: avoidance (response to CS within 10 s); escape (response to CS+UCS); escape failures (failure to respond); intertrial crosses and locomotor activity. The rats are habituated to the shuttle-box 3 min before each test session. During training each test session consists of 30 trials with intertrial intervals varying randomly between 20 s and 30 s. Training is carried until the rats display an avoidance of 80% or more, on 3 consecutive days. A test is preceded by a pre-test the day before giving rise to a baseline value for each animal, thus the animals serve as their own control. Seven to eight rats are used at each dose level. A parallel control group receiving the vehicle of the test compound is also included.
Administration of compound.
Statistical analyses. The effects of compounds on avoidance and escape failure behaviours were statistically evaluated by means of a two-way repeated measures ANOVA followed by post hoc comparisons (Student-Newman-Keuls Method) when appropriate. P-levels <0.05 were considered statistically significant.

A short description of data set [4]: Motility inhibition (sedative properties) without d-amphetamine, rat. Conditions: Wistar, in vivo, sc.
The subject of data set [5] is DA levels in the nucleus accumbens. Briefly: Microdialysis: DA levels in the nucleus accumbens of freely moving rats. The class given is in vivo, rat. Conditions: no amphetamine provocation, data not shown.
Data set [6] shares this test system. The data set is described as above. The class given is in vivo, rat. Conditions: 5 mg/kg s.c., freely moving rats. An excerpt: It is well-known that psychostimulants increase locomotor activity via an increase in extracellular DA levels in the nucleus accumbens, which is the terminal area of the mesolimbic DA projections (Guix et al., 1992, Neurosci. Lett., 138(1), 137-140; Moghaddam et al., 1989, Synapse, 4(2), 156-161). It is also known, that the antagonistic effect of antipsychotics on stimulant-induced hyperlocomotion is related to the effect of antipsychotics to inhibit the stimulated DA levels in the nucleus accumbens (Broderick et al., 2004, Prog. Neuropsychopharmacology and Biol. Psych., 28, 157-171). Thus, the nucleus accumbens is an accepted neuroanatomical site for testing reversal of positive symptoms of psychosis. […] The experiments were conducted such that the data may be associated with the behavioural data obtained above.
Subjects. Male Sprague-Dawley rats (Charles River), initially weighing 275-300 g, were used. The animals were housed under a 12-hr light/dark cycle under controlled conditions for regular in-door temperature (21±2° C.) and humidity (55±5%) with food and tap water available ad libitum.
Surgery. Animals were anaesthetized with hypnorm/dormicum (2 ml/kg s.c.) and intracerebral guide cannulas (CMA/12) were stereotaxically implanted, positioning the dialysis probe tip in the nucleus accumbens (co-ordinates: […] anterior to bregma, —1.2 mm lateral to bregma, 8.0 mm ventral to the dura). Anchor screws and acrylic cement was applied for fixation of the guide cannula. The body temperature of the animals was maintained at 37° C. by means of a rectal probe and a heating plate. The rats were allowed to recover from surgery for 2 days, housed singly in cages.
Experimental procedure. On the day of the experiment, a microdialysis probe (CMA/12, 0.5 mm diameter, 2 mm length) was inserted through the guide cannula of the conscious animal. The probes were connected to a microinjection pump via a dual channel swivel which allowed the animals unrestricted movements. Perfusion of the microdialysis probe with filtered Ringer solution (145 mM NaCl, 3 mM KCl, 1 mM MgCl2, 1.2 mM CaCl2) was maintained for the duration of the experiment at a constant flow rate of 1 μL/min. After 180 min of stabilisation, the experiments were initiated. Dialysates were collected every 20 min. After the experiments the rats were sacrificed by decapitation, their brains removed, frozen and sliced for probe placement verification.
Administration of compounds. […] Thirty min after the first administration dex-amphetamine sulphate (0.5 mg/kg s.c.) was administered.
Analysis of dialysate. The concentration of dopamine (DA) in the dialysates was assessed by means of HPLC with electrochemical detection. The dialysate constitutents were separated by reverse phase liquid chromatography (ODS 150×3 mm, […]). Mobile phase consisted of 90 mM NaH2PO4, 50 mM sodium citrate, 367 mg/l sodium 1-octanesulfonic acid, 50 μM EDTA and 8% acetonitrile (pH 4.0) at a flow rate of 0.5 ml/min. Electrochemical detection of DA was accomplished using a coulometric detector; potential set at E1=−75 mV and E2=300 mV (guard cell at 350 mV) (Coulochem II, ESA). The dialysate levels of DA in the three dialyse samples preceding the administration of compound were averaged and used as baseline level of DA (100%)

The subject of data set [7] is amphetamine-induced hyperactivity in the rat. Briefly: Amphetamine challenge: d-amphetamine induced hyperactivity in rats. Conditions: test substance s.c. 30 min before d-amphetamine sulphate 0.5 mg/kg, motility 2 hours, read-out: Amphetamine antagonism ED50 ± std. dev. Type of data set: in vivo. The source says: D-amphetamine administration to rodents stimulates an increase in locomotor activity via mesolimbic dopamine receptors in the nucleus accumbens. While psychostimulant psychosis may not model all forms of schizophrenia, it may have applicability to paranoid schizophrenia and non-schizophrenic psychotic disorders (Krystal et al. pp. 214-224 in Neurobiology of Mental Illness ISBN 0-19-511265-2). It is believed that inhibition of the amphetamine-induced increase in locomotor activity is a reliable method for the evaluation of compounds with an antipsychotic potential (Ögren et al., European J. Pharmacol. 1984, 102, 459-464). In the following experiment, it was tested if the inhibition of spontaneous DA neurons in the mesolimbic circuit that was assessed above, could be translated into behavioral antipsychotic endpoint.
Subjects. Male Wistar rats (Taconic, Denmark) weighing 170-240 g are used. The animals were housed under a 12-hr light/dark cycle under controlled conditions for regular in-door temperature (21±2° C.) and humidity (55±5%) with food and tap water available ad libitum. Eight rats were used at each dose level and in the parallel control group receiving the vehicle to the test compound plus d-amphetamine and the group receiving vehicle injections only.

Data set [8] has as its system immobility in the mouse forced swim test. Briefly: Mouse forced swim test. Type of data set: in vivo. Conditions: 30 min before the test, mice, last 3 min of 6 min swim, vehicle = 100.
The test system of data set [9] is baseline motility in mice. The data set can be described thus: Inhibition of baseline motility in vehicle-pretreated, vehicle-challenged mice. The conditions noted are these: vehicle-pretreated, vehicle-challenged mice, compound s.c.
The nature of a further data set: in vivo. The conditions noted are these: Wistar, rat, sc.
Where [10] appears, read: 2.5 mg/kg s.c. 30 min before the test.
[11] abbreviates: 5 mg/kg s.c. 30 min before the test.

One may read the ED50 as the dose at which the effect has come halfway, by size or by number of responders. Consider `Cc1nc(N2CCOCC2)nc(C)c1NC(=O)CC1CCCC1` [2-Cyclopentyl-N-(4,6-dimethyl-2-morpholin-4-yl-pyrimidin-5-yl)-acetamide], for which the ED50 at 30 min in data set [1] (subcutaneous) is 2.5 mg/kg. Further, the median effective dose (ED50) in [2] was found to be 0.9 mg/kg.
As for `Cc1cc(N2CCOCC2)cc(C)c1NC(=O)CC(C)(C)C`, the ED50 at 30 min in data set [1] (subcutaneous) was above 2.5 mg/kg. Further, the results for the ED50 in data set [2] and in data set [7] were 1.6 mg/kg and 2.1 mg/kg, respectively. Moreover, the “% inhibition of avoidance. Relative to baseline.” value in data set [3] (setting [10]) worked out at 1%; in data set [3] (setting [11]) it was 71%. The “Escape failures (effect on motor performance)” value in data set [3] is on record as “None of the tested doses caused any incidences of escape failures”. In data set [4], this molecule displayed a 50% effective dose (ED50) at 2 h of 7.6 mg/kg. Also, in data set [5], the “Effect on basal extracellular DA level in the nucleus accumbens” value was “merely provoked levels of DA were affected, but not basal levels of DA”. In addition, the results for the “DA level in the nucleus accumbens, amphetamine + compound” value in data set [6] (time 0 min) and in data set [6] (time −20 min) were 91 ± 4 % of baseline and 100 ± 3 % of baseline, respectively.
With `CCC(=O)Nc1c(Br)cc(N2CCOCC2)cc1C(F)(F)F` [N-(2-Bromo-4-morpholin-4-yl-6-trifluoromethyl-phenyl)-propionamide], the 50% effective dose (ED50) at 30 min in [1] (subcutaneous) was 6 mg/kg. For the same molecule, in data set [2], the median effective dose (ED50) is 3.1 mg/kg.
In the case of `Cc1cc(N2CCOCC2)nc(C)c1NC(=O)CC(C)(C)C` [N-(2,4-Dimethyl-6-morpholin-4-yl-pyridin-3-yl)-3,3-dimethyl-butyramide], the 50% effective dose (ED50) at 30 min in [1] (subcutaneous) is 3.1 mg/kg. Further, the median effective dose (ED50) in data set [2] is 1.4 mg/kg.
Turning to `Cc1cc(N2CCOCC2)cc(C)c1NC(=O)CC1CCCC1`, the ED50 at 30 min in data set [1] (subcutaneous) turned out to be 2.2 mg/kg. Also, the figures for the 50% effective dose (ED50) in data set [2] and in data set [7] were 1.2 mg/kg and 2.6 mg/kg, respectively. Further, the “% inhibition of avoidance. Relative to baseline.” value in data set [3] (setting [10]) is recorded as 5%; in data set [3] (setting [11]), 65%. The “Escape failures (effect on motor performance)” value in [3] is listed as “None of the tested doses caused any incidences of escape failures”. Moreover, the ED50 at 2 h in data set [4] came to 5.3 mg/kg. Moreover, in data set [5], the “Effect on basal extracellular DA level in the nucleus accumbens” value is given as “merely provoked levels of DA were affected, but not basal levels of DA”. Also, the “DA level in the nucleus accumbens, amphetamine + compound” value in data set [6] (time 0 min) is on record as 99 ± 4 % of baseline; in data set [6] (time −40 min), 95 ± 6 % of baseline.
In the case of `Cc1cc2c(s1)Nc1ccccc1N=C2N1CCN(C)CC1` [Olanzapine], the Immobility in % in data set [8] (dose 0.31 mg/kg) is given as 96%; in data set [8] (dose 1.3 mg/kg), 95%. Moreover, the ED50 in [7] came out at 0.21 mg/kg.
Regarding `CCCCCC(=O)Nc1c(F)cc(N2CCOCC2)cc1F` [Hexanoic acid (2,6-difluoro-4-morpholin-4-yl-phenyl)-amide], the 50% effective dose (ED50) at 30 min in data set [1] (subcutaneous) is above 5 mg/kg. Moreover, the median effective dose (ED50) in data set [2] amounted to 2.4 mg/kg.
For the molecule `Cc1nc(N2CCOCC2)nc(C)c1NC(=O)Cc1ccc(F)cc1` [N-(4,6-Dimethyl-2-morpholin-4-yl-pyrimidin-5-yl)-2-(4-fluoro-henyl)-acetamide], the “Inhibition of baseline motility. ED50 (±S.D.)” value in [9] is reported as 2.2 mg/kg. Further, in data set [2], the “Inhibition of amphetamine sensitised response. ED50 (±S.D.)” value was 0.4 mg/kg.
With `[Li]` [Lithium-chloride], in the data set “in vivo”, the ED50 at 2 h was above 40 mg/kg. Besides, in [7], the ED50 was 12 mg/kg.
As for `COc1cc(N2CCOCC2)cc(C)c1NC(=O)CC1CCCC1` [2-Cyclopentyl-N-(2-methoxy-6-methyl-4-morpholin-4-yl-phenyl)-acetamide], the ED50 at 30 min in [1] (subcutaneous) turned out to be 3 mg/kg. Further, the ED50 in [2] came to 1.7 mg/kg.
With `CCOC(=O)Nc1ccc(NCc2c(C)cc(C)cc2C)cc1N` [[2-Amino-4-(2,4,6-trimethyl-benzylamino)-phenyl]-carbamic acid ethyl ester], the ED50 at 30 min in data set [1] was found to be 4.3 mg/kg.
